Laboratory results taken from patent publication US20090239846A1, “Novel Compounds” (Glaxo Group Limited, priority 2005, published 2009).
Structures can show the parent of a compound that is named as a salt.

Target: T1, Recombinant human p38α (Homo sapiens, UniProt Q16539)
T1 construct: GST; made in house
Assay: Fluorescence anisotropy kinase binding assay (standard or low volume)
Conditions: 12 nM p38α, 5 nM fluorescent ligand; call rule not given here
From the text: (§1) The concentration of kinase enzyme should preferably be >2×Kf. The concentration of fluorescent ligand required will depend on the instrumentation used, and the fluorescent and physicochemical properties. The concentration used must be lower than the concentration of kinase enzyme, and preferably less than half the kinase enzyme concentration.
The fluorescent ligand is the following compound:
[drawing 329] • which is derived from 5-[2-(4-aminomethylphenyl)-5-pyridin-4-yl-1H-imidazol-4-yl]-2-chlorophenol and rhodamine green. Recombinant human p38α was expressed as a GST-tagged protein. To activate this protein, 3.5 μM unactivated p38α was incubated in 50 mM Tris-HCl pH 7.5, 0.1 mM EGTA, 0.1% 2-mercaptoethanol, 0.1 mM sodium vanadate, 10 mM MgAc, 0.1 mM ATP with 200 nM MBP-MKK6 DD at 30 degrees for 30 mins. Following activation p38α was re-purified and the activity assessed using a standard filter-binding assay. Protocol: All components are dissolved in buffer of composition 62.5 mM HEPES, pH 7.5, 1.25 mM CHAPS, 1 mM DTT, 12.5 mM MgCl2 with final concentrations of 12 nM p38α and 5 nM fluorescent ligand. 30 μl of this reaction mixture is added to wells containing 1 μl of various concentrations of test compound (0.28 nM-16.6 μM final) or DMSO vehicle (3% final) in NUNC 384 well black microtitre plate and equilibrated for 30-60 mins at room temperature. Fluorescence anisotropy is read in Molecular Devices Acquest (excitation 485 nm/emission 535 nm). Definitions: Ki=dissociation constant for inhibitor binding • Kf=dissociation constant for fluorescent ligand binding
as §1, with “2×Kf.” for “>2×Kf.”, “concentration. The fluorescent ligand is the following compound:” for “concentration.”
which is derived from 5-[2-(4-aminomethylphenyl)-5-pyridin-4-yl-1H-imidazol-4-yl]-2-chlorophenol and rhodamine green. Recombinant human p38α was expressed as a GST-tagged protein. To activate this protein, 3.5 μM unactivated p38α was incubated in 50 mM Tris-HCl pH 7.5, 0.1 mM EGTA, 0.1% 2-mercaptoethanol, 0.1 mM sodium vanadate, 10 mM MgAc, 0.1 mM ATP with 200 nM MBP-MKK6 DD at 30 degrees for 30 mins. Following activation p38α was re-purified and the activity assessed using a standard filter-binding assay. Protocol: All components are dissolved in buffer of composition 62.5 mM HEPES, pH 7.5, 1.25 mM CHAPS, 1 mM DTT, 12.5 mM MgCl2 with final concentrations of 12 nM p38α and 5 nM fluorescent ligand. […] of this reaction mixture is added to wells containing 0.1 μl of various concentrations of test compound (0.02 nM-25 μM final) or DMSO vehicle (1.7% final) in Greiner low volume 384 well black microtitre plate and equilibrated for 30-60 mins at room temperature. Fluorescence anisotropy is read in Molecular Devices Acquest (excitation 485 nm/emission 535 nm). Definitions: Ki dissociation constant for inhibitor binding • Kf=dissociation constant for fluorescent ligand binding It is noted that there are two assay formats shown above for the Fluorescence anisotropy kinase binding assay. The only difference between these two assays is the volume used and the plate type. […] The results described herein may have been performed in either assay format and are not differentiated as to which.

T1 sequence (Q16539 whole entry): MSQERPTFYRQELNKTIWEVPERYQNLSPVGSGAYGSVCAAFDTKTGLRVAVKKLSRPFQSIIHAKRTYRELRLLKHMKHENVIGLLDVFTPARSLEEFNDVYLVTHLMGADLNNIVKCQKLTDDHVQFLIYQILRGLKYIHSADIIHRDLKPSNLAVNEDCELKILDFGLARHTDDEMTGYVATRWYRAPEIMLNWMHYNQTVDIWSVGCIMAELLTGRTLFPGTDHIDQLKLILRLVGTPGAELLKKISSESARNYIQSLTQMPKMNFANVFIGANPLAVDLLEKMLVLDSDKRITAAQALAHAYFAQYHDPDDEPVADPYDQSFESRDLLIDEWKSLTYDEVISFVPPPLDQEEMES

Row | SMILES | active in the assay (pIC50, p38α binding)
1 | CSc1nc(-c2cc(C(=O)O)ccc2C)c2c(n1)N(c1c(F)cccc1F)C(=O)NC2 [1(d), 3-[8-(2,6-Difluorophenyl)-2-(methylthio)-7-oxo-5,6,7,8-tetrahydropyrimido[4,5-d]pyrimidin-4-yl]-4-methylbenzoic acid] | active
2 | Cc1ccc(C(=O)NCC2CC2)cc1-c1nc(N2CCC(N)CC2)nc2c1CNC(=O)N2c1c(F)cccc1F [2(b), 3-[2-(4-Amino-1-piperidinyl)-8-(2,6-difluorophenyl)-7-oxo-5,6,7,8-tetrahydropyrimido[4,5-d]pyrimidin-4-yl]-N-(cyclopropylmethyl)-4-methylbenzamide] | active
3 | Cc1ccc(C(=O)NCCc2ccc(F)cc2)cc1-c1nc(N2CCC(N)CC2)nc2c1CNC(=O)N2c1c(F)cccc1F [3(b), 3-[2-(4-Amino-1-piperidinyl)-8-(2,6-difluorophenyl)-7-oxo-5,6,7,8-tetrahydropyrimido[4,5-d]pyrimidin-4-yl]-N-[2-(4-fluorophenyl)ethyl]-4-methylbenzamide] | active
4 | Cc1ccc(NC(=O)c2ccsc2)cc1-c1nc(NC2CC(C)(C)NC(C)(C)C2)nc2c1CNC(=O)N2c1c(F)cccc1F [7(d), N-(3-{8-(2,6-Difluorophenyl)-7-oxo-2-[(2,2,6,6-tetramethyl-4-piperidinyl)amino]-5,6,7,8-tetrahydropyrimido[4,5-d]pyrimidin-4-yl}-4-methylphenyl)-3-thiophenecarboxamide] | active
5 | CSc1nc(-c2cc(N)ccc2C)c2c(n1)N(c1c(F)cccc1F)C(=O)NC2 [10(b), 5-(5-Amino-2-methylphenyl)-1-(2,6-difluorophenyl)-7-(methylthio)-3,4-dihydropyrimido[4,5-d]pyrimidin-2(1H)-one] | active
6 | Cc1ccc(C(=O)NCc2ccccc2)cc1-c1nc(NC2CCN(C(=O)OC(C)(C)C)CC2)nc2c1CNC(=O)N2c1c(F)cccc1F [21(a), 1,1-Dimethylethyl 4-{[8-(2,6-difluorophenyl)-4-(2-methyl-5-{[(phenylmethyl)amino]carbonyl}phenyl)-7-oxo-5,6,7,8-tetrahydropyrimido[4,5-d]pyrimidin-2-yl]amino}-1-piperidinecarboxylate] | active
7 | Cc1ccc(C(=O)Nc2ccc(F)cc2)cc1-c1nc(NCCNC(C)C)nc2c1CNC(=O)N2c1c(F)cccc1F [30(c), 3-[8-(2,6-difluorophenyl)-2-({2-[(1-methylethyl)amino]ethyl}amino)-7-oxo-5,6,7,8-tetrahydropyrimido[4,5-d]pyrimidin-4-yl]-N-(4-fluorophenyl)-4-methylbenzamide] | active
8 | CNCCNc1nc(-c2cc(C(=O)Nc3ccc(F)cc3)ccc2C)c2c(n1)N(c1c(F)cccc1F)C(=O)NC2 [31(b), 3-(8-(2,6-difluorophenyl)-2-{[2-(methylamino)ethyl]amino}-7-oxo-5,6,7,8-tetrahydropyrimido[4,5-d]pyrimidin-4-yl)-N-(4-fluorophenyl)-4-methylbenzamide] | active
9 | CNC1CCN(c2nc(-c3cc(C(=O)Nc4ccc(F)cc4)ccc3C)c3c(n2)N(c2c(F)cccc2F)C(=O)NC3)CC1 [33(b), 3-{8-(2,6-difluorophenyl)-2-[4-(methylamino)-1-piperidinyl]-7-oxo-5,6,7,8-tetrahydropyrimido[4,5-d]pyrimidin-4-yl}-N-(4-fluorophenyl)-4-methylbenzamide] | active
10 | CNCCNc1nc(-c2cc(C(=O)NC(C)C)ccc2C)c2c(n1)N(c1c(F)cccc1F)C(=O)NC2 [38(b), 3-(8-(2,6-difluorophenyl)-2-{[2-(methylamino)ethyl]amino}-7-oxo-5,6,7,8-tetrahydropyrimido[4,5-d]pyrimidin-4-yl)-4-methyl-N-(1-methylethyl)benzamide] | active
11 | CC(C)NC(=O)c1cccc(-c2nc(NCCN(C)C)nc3c2CNC(=O)N3c2c(F)cccc2F)c1 [88(c), 3-(8-(2,6-difluorophenyl)-2-{[2-(dimethylamino)ethyl]amino}-7-oxo-5,6,7,8-tetrahydropyrimido[4,5-d]pyrimidin-4-yl)-N-(1-methylethyl)benzamide] | active
12 | CSc1nc(-c2cc(C(=O)N(C)C)ccc2C)c2c(n1)N(c1c(F)cccc1F)C(=O)NC2 [149(a), 3-[8-(2,6-difluorophenyl)-2-(methylthio)-7-oxo-5,6,7,8-tetrahydropyrimido[4,5-d]pyrimidin-4-yl]-N,N,4-trimethylbenzamide] | active
13 | CNC(=O)c1ccc(C)c(-c2nc(SC)nc3c2CNC(=O)N3c2c(F)cccc2F)c1 [163(a), 3-[8-(2,6-difluorophenyl)-2-(methylthio)-7-oxo-5,6,7,8-tetrahydropyrimido[4,5-d]pyrimidin-4-yl]-N,4-dimethylbenzamide] | active
14 | CSc1nc(-c2cc(NC(=O)c3ccsc3)ccc2C)c2c(n1)N(c1c(F)cccc1F)C(=O)NC2 [Example 10(c), N-{3-[8-(2,6-difluorophenyl)-2-(methylthio)-7-oxo-5,6,7,8-tetrahydropyrimido[4,5-d]pyrimidin-4-yl]-4-methylphenyl}-3-thiophenecarboxamide] | active
15 | CCN(CC)CCCC(C)Nc1nc(-c2cc(C(=O)NC(C)C)ccc2C)c2c(n1)N(c1c(F)cccc1F)C(=O)NC2 (centres unmarked) [Example 85, 3-[2-{[4-(diethylamino)-1-methylbutyl]amino}-8-(2,6-difluorophenyl)-7-oxo-5,6,7,8-tetrahydropyrimido[4,5-d]pyrimidin-4-yl]-4-methyl-N-(1-methylethyl)benzamide trifluoroacetate] | active

Test system: influx of neutrophils to the lung in LPS-challenged rats
Assay: Rat LPS neutrophilia model
Assay type: in vivo
Conditions: LPS aerosol, lavage 4 hours later, in at least one of the range of conditions tested, significance p<0.05
Procedure: The effect of compounds on the influx of neutrophils to the lung in LPS-challenged rats is evaluated as follows. The test compound is suspended in one of the following solutions: 0.5% tween 80/PBS, 0.5% tween 80/saline, 10% EtOH/saline (with pH adjusted to 2.0, or 8.0 with HCl, or unadjusted), Saline (pH 2.0, 6.5 or 8.0, 0.5% Tragacanth, 1% DMSO/20% Encapsin/Saline, or acidified 5% Tragacanth. The suspension process may be aided by the use of a glass homogenizer. For intratracheal administration, the animals are anesthetized with inhaled isoflurane and placed in a supine position, the trachea is intubated with a steel gavage needle (1.5 inch, 22 gauge, small ball) or a Penn-Century Microsprayer Aerosolizer (model IA-LB) and 200 ul of dosing solution is delivered. The animals are visually monitored during the recovery process, which typically occurs within two minutes.
Rats treated with compound or vehicle (15 min-24 hours pretreatment) are exposed to an LPS aerosol (100 ug/ml) for 15 min. Four hours later the rats are euthanized with pentobarbital (100 mg/kg, i.p.) and the airways are lavaged with 5 washes of 5 ml of phosphate buffered saline. The harvested cells are stained (Diffquick) and counted to determine total and differential cell data. In a typical study, macrophages represent 40-70% of the total cells, and polymorphonuclear cells 30-60% of the total cells. Inhibition of neutrophil levels relative to no compound controls is calculated based on the differential counts.
The assay has varying conditions, such as concentration, pretreat time, form of the compound (crystalline, amorphous, salts, micronised), and a wet or dry application of the compound.
The data is obtained as % inhibition using a particular concentration and pretreat time.

Row | SMILES | inhibition of neutrophilia
16 | Cc1ccc(C(=O)Nc2ccc(F)cc2)cc1-c1nc(N(C)CCCN(C)C)nc2c1CNC(=O)N2c1c(F)cccc1F [Example 9] | statistically nonsignificant inhibition of neutrophilia
17 | Cc1ccc(C(=O)NC(C)C)cc1-c1nc(N(C)CCN(C)C)nc2c1CNC(=O)N2c1c(F)cccc1F [Example 36, 3-{8-(2,6-difluorophenyl)-2-[[2-(dimethylamino)ethyl](methyl)amino]-7-oxo-5,6,7,8-tetrahydropyrimido[4,5-d]pyrimidin-4-yl}-4-methyl-N-(1-methylethyl)benzamide] | statistically significant inhibition of neutrophilia
